This is an account of results in patent publication US7732442B2 (Ono Pharmaceutical Co., Ltd., priority 2003, dated 2010).

The assay addresses T1, human CCR4 (Homo sapiens, UniProt P51679).
T1 construct: expressed in transfected cells; host or cells: CHO-dhfr(-)
T1 sequence (P51679 1-360): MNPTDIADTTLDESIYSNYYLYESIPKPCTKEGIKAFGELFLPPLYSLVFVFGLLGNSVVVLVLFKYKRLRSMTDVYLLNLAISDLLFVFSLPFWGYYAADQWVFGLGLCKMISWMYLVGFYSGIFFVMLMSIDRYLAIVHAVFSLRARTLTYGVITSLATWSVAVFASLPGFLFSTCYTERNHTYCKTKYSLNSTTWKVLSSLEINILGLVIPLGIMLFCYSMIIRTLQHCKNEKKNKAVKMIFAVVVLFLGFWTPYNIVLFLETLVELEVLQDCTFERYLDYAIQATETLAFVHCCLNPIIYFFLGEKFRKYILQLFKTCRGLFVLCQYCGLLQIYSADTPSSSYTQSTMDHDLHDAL
Nature of the assay: Inhibition test on activity of MDC mediated by CCR4 (MDC-induced transient increase of Ca ions) in CCR4/CHO cells. Type of assay: cell-based. The conditions noted are these: in the presence of 0.3% BSA; human MDC 10 nM; CCR4/CHO cell; read-out: IC50 value (inhibition of Ca2+ transient increase by MDC). As to the method: Human bone marrow cell cDNA was prepared using Marathon cDNA amplification kit (manufactured by Clontech). PCR primers hCCR4XbaI-F1 (SEQ ID NO:1) and hCCR4XbaI-R1 (SEQ ID NO:2) were designed based on the sequence of GenBankX85740.
Using the human bone marrow cell cDNA as the template and using Ex Taq (manufactured by Takara), a PCR reaction (2 minutes at 95° C.→[30 seconds at 95° C., 45 seconds at 60° C., 1 minute at 72° C.]×35 times) was carried out. The thus amplified PCR product was subjected to 1% agarose gel electrophoresis, purified using QIAquick Gel Extraction Kit (manufactured by QUIAGEN) and then digested with a restriction enzyme XbaI. […]
The thus established human CCR4 stably overexpressing CHO cell (CCR4/CHO cell) was suspended in Ham's F-12 medium and FBS (10%) and dispensed into a 96-well plate at 3.0×10^4 cells/well. […] Transient increase in the intracellular Ca^2+ concentration induced by the human MDC was measured using a Ca^2+ detector for 96-well (manufactured by Hamamatsu Photonics), and inhibition ratio (%) of the test compound was calculated by the following equation: Inhibition ratio=[(Ec−Ea)/Ec]×100 • Ec: measured value of Ca^2+ transient increase by MDC; and • Ea: measured value of Ca^2+ transient increase by MDC when a test compound was added […]

Molecules are shown by their SMILES. pIC50: −log10 of the molar value.

On to `COc1ccc(COc2cc(Br)cnc2NS(=O)(=O)c2ccc(C)cc2)cc1OCCN(C)C` [Example 2(2), N-[5-bromo-3-({3-[2-(dimethylamino)ethoxy]-4-methoxybenzyl}oxy)pyridin-2-yl]-4-methylbenzenesulfonamide], for which the pIC50 is 6.64.

As to `Cc1cnc(NS(=O)(=O)c2ccccc2Cl)c(OCc2ccc(Cl)c(OCC3CCN(C)CC3)c2)n1` [Example 6(1)], the pIC50 is 7.10.

What is called pIC50 is the IC50 on a negative log10 scale, so that one unit is a factor of ten.
